In patent publication US12391650B2, “Catecholamine prodrugs for use in the treatment of Parkinson's disease” (H. Lundbeck A/S, priority 2019, dated 2025):
Where two headings read alike, the source gives them in different places.

Experiments:
[1] = Conversion of compounds in human hepatocytes; format: in vitro ADME; conditions: 1 μM compound, 37° C.
Description: Incubations were conducted in 96-well plates at 1 μM compound concentration in duplicate. The hepatocyte cell concentration was 0.5×10^6 cells/mL used for final incubation at 37° C. in an incubator of 5% CO2 95% relative humidity. The medium control samples were included at 0 and 60 minutes in the absence of cells. The total organic concentration was 1% (DMSO 0.1%) in the final incubation. The controls, (7-ethoxycoumarin and 7-hydroxycoumarin) was incubated parallel at […]. 2 μL of dosing solution (50 μM for test compounds and 100 μM for positive control) was mixed with 98 μL of 100 mM PBS to achieve 1 μM test compound and 2 μM positive control of final concentration. The mixture was incubated, and samples were withdrawn from the incubations at pre-determined time points of 0, 0.5, 1, 2, 4 and 6 hours (in duplicate) at 37° C. in water bath. To each sample, 10 μL inhibitor and 20 μL ascorbic acid and 2 μL formic acid (20%) were added followed by 400 μL of stop solution (200 ng/mL tolbutamide plus 200 ng/mL labetalol in 50% ACN/MeOH). The substance was mixed thoroughly and thereafter centrifuged at 4,000 rpm for 20 minutes. An aliquot of supernatant (50 μL) from each well were transferred to a sample plate and mixed with 100 μL ultrapure water. The plate was shaked at 800 rpm for about 10 minutes before submitting to LC-MS/MS analysis. […]

[2] = PK experiments in rats after oral dosing, plasma compound (I); format: in vivo, Han Wistar rats; conditions: Wistar rats; for Observed metabolite, in vivo PK study after oral dosing (rats): plasma
Description: Plasma was placed on water-ice following collection. Final storage at approximately −70° C.
Mobile phase B: Acetonitrile. […] Flow rate 0.5 mL/min.
The rats had unrestricted access to the diet.
Mobile phase B: Acetonitrile+0.2% formic acid. […] Flow rate 0.3 mL/min.
Dosing and blood sampling for compound (Ic), compound (2), compound (3), compound (8), and compound (9): Han Wistar rats were supplied by Envigo, UK. […] The rats received a standard laboratory diet Teklad 2014C. The rats had unrestricted access to the diet. […] Rats were given 494 μg/kg (Ic), 392 μg/kg compound (8), 426 μg/kg compound (9), 359 μg/kg compound (3) and 551 μg/kg compound (2).

human 5-HT2B receptor = molecular target: T1, human 5-HT2B receptor (Homo sapiens, UniProt P41595); experiment: 5-HT2B agonist activity assay (IP1 production, HTRF, transfected CHO cells); format: cell-based
T1 construct: host or cells: CHO cells
T1 sequence (P41595 whole entry): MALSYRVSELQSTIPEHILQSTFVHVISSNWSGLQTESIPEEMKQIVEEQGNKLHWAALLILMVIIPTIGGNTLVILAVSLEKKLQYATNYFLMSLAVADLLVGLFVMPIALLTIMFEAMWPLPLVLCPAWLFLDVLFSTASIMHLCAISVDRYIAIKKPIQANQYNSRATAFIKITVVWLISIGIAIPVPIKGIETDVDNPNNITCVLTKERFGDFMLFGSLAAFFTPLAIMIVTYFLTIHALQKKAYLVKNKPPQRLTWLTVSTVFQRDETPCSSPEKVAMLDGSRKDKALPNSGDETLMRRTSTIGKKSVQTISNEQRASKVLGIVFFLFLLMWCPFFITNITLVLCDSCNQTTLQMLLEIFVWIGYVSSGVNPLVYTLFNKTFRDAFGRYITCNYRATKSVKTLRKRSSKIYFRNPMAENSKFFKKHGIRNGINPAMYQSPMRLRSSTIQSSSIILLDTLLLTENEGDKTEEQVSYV
Description: Evaluation of the agonist activity of compounds (I), (Ia), (Ib), (Ic), compound (2), compound (3), compound (6), compound (8), and compound (9) at the human 5-HT2B receptor was performed by Eurofins/Cerep (France) measuring the compound effects on inositol monophosphate (IP1) production using the HTRF detection method. Briefly, the human 5-HT2B receptor was expressed in transfected CHO cells. The cells were suspended in a buffer containing 10 mM Hepes/NaOH (pH 7.4), 4.2 mM KCl, 146 mM NaCl, 1 mM CaCl2, 0.5 mM MgCl2, 5.5 mM glucose and 50 mM LiCl, then distributed in microplates at a density of 4100 cells/well and incubated for 30 minutes at 37° C. in the presence of buffer (basal control), test compound or reference agonist. For stimulated control measurement, separate assay wells contained 1 μM 5-HT. Following incubation, the cells were lysed and the fluorescence acceptor (fluorophen D2-labeled IP1) and fluorescence donor (anti-IP1 antibody labeled with europium cryptate) were added. After 60 minutes at room temperature, the fluorescence transfer was measured at lambda(Ex) 337 nm and lambda(Em) 620 and 665 nm using a microplate reader (Rubystar, BMG). The IP1 concentration was determined by dividing the signal measured at 665 nm by that measured at 620 nm (ratio). The results were expressed as a percent of the control response to 1 μM 5-HT. The standard reference agonist was 5-HT, which was tested in each experiment at several concentrations to generate a concentration-response curve from which its EC50 value is calculated as described above for dopamine functional assays.

[3] = Conversion of compounds in human plasma; format: in vitro ADME; conditions: for Observed metabolite, incubation in human plasma: 1 μM test compound, 37° C., 0-6 hours
Description: Frozen human plasma was thawed and then centrifuged at 3200×g for 5 minutes to remove debris. The pH value of the supernatant was then measured and adjusted to 7.4±0.1 by adding 1% phosphoric acid or 1 N sodium hydroxide. 2 μL of dosing solution (50 μM for test compounds and 100 μM for positive control (propantheline bromide)) was mixed with 98 μL of blank plasma to achieve 1 μM test compound and 2 μM positive control of final concentration. The mixture was incubated, and samples were withdrawn from the incubations at the pre-determined time points of 0, 0.5, 1, 2, 4 and 6 hours (in duplicate) at 37° C. in water bath. At each corresponding time point 10 μL inhibitor and 20 μL ascorbic acid and 2 μL formic acid (20%) are added, and then added 400 μL of “stop solution” (200 ng/mL tolbutamide plus 200 ng/mL labetalol in 50% ACN/MeOH) to precipitate protein. The substance was mixed thoroughly and thereafter centrifugated at 4,000 rpm for 20 minutes. Then an aliquot of supernatant (50 μL) was transferred from each well to a sample plate and mixed with 100 μL ultrapure water. The plate was shaked at 800 rpm for about 10 minutes before submitting to LC-MS/MS analysis.
Instrumentation used for analysis of plasma and hepatocyte incubation samples:
Mass spectrometer (LC-MS/MS) Shimadzu LC 20-AD Shimadzu UHPLC API 4000. Analytical column ACQUITY UPLC® BEH Phenyl 1.7 μm 2.1×50 mm. Mobile phase A: 0.1% Formic Acid in water. Mobile phase B: 0.1% formic acid in acetonitrile. […] Flow rate 0.7 mL/min.

[4] = rats; cited from earlier work
[5] = various animal models relevant for Parkinson's Disease; cited from earlier work
[6] = rats; cited from earlier work; remark: listed apart in the source
[7] = man, oral dosing, extensive hepatic first-pass metabolism; cited from earlier work
[8] = PD patients, intravenous (IV); cited from earlier work
[9] = rat hepatocytes; cited from earlier work
[10] = human hepatocytes; cited from earlier work
[11] = percent of the control response to 1 μM 5-HT

| SMILES | Observed metabolite, in vivo PK study after oral dosing (rats) [2] | 5-HT2B % effect @ 10 μM (human 5-HT2B receptor; [11]) | In vivo pharmacology, efficacy [5] | Plasma concentration profile of compound (I) after oral dosing, in words [2] | Observed metabolite, incubation in human plasma [3] | other results |
| --- | --- | --- | --- | --- | --- | --- |
| CCCN1CCC[C@@H]2Cc3c(ccc(OC)c3O)C[C@H]21 [Compound (3), (4aR,10aR)-7-methoxy-1-propyl-1,2,3,4,4a,5,10,10a-octahydrobenzo[g]quinolin-6-ol] | Compound (1) | 27% @ 10 μM |  |  |  | Observed metabolite, incubation in human hepatocytes [1]: Compound (1) |
| CCCN1CCC[C@@H]2Cc3c(ccc(O)c3O)C[C@H]21 [compound (I), (4aR,10aR)-1-n-Propyl-1,2,3,4,4a,5,10,10a-octahydro-benzo[g]quinoline-6,7-diol] |  |  | effective |  |  | Half-life in the plasma assay ([3]; human plasma, in words): short half-life; Oral bioavailability, in words [4]: low oral bioavailability |
| CCCN1CCC[C@@H]2CC3=C(CCCC3=O)C[C@H]21 [(Ia), reference compound] |  |  | effective | early and high peak plasma concentrations of compound (I) |  | 5-HT2B % effect @ 30 μM (human 5-HT2B receptor; 30 μM, percent of the control response to 1 μM 5-HT): 58%; Conversion to the active compound (I) [6]: converted to the active compound (I) |
| CCCc1cc2c(s1)CN[C@@H]1CCc3cc(OC(C)=O)c(OC(C)=O)cc3[C@@H]21 [Adrogolide] |  |  |  |  |  | Oral bioavailability [7]: ~4%; Antiparkinson efficacy [8]: comparable to that of L-DOPA |
| CCCN1CCC[C@@H]2Cc3c(ccc(OC(=O)C(C)(C)C)c3OC(=O)C(C)(C)C)C[C@H]21 [(Ic), reference compound] |  | −5% @ 10 μM |  | extremely low |  |  |
| CCCN1CCC[C@@H]2Cc3c(ccc(OCc4ccccc4)c3O)C[C@H]21 [Compound (2), (4aR,10aR)-7-(benzyloxy)-1-propyl-1,2,3,4,4a,5,10,10a-octahydrobenzo[g]quinolin-6-ol] | Compound (1) | 30% @ 10 μM |  |  | Compound (1) | Observed metabolite, incubation in human hepatocytes [1]: Compound (1) |
| CCC[N@+]1(COP(=O)([O-])O)CCC[C@@H]2Cc3c(ccc(O)c3O)C[C@H]21 [Compound (9), ((1S,4aR,10aR)-6,7-dihydroxy-1-propyl-1,2,3,4,4a,5,10,10a-octahydrobenzo[g]quinolin-1-ium-1-yl)methyl hydrogen phosphate] | Compound (1) | −1% @ 10 μM |  |  | Compound (1) |  |
| CCCN1CCC[C@@H]2Cc3c(ccc(OP(=O)(O)O)c3OP(=O)(O)O)C[C@H]21 [Compound (6), (4aR,10aR)-1-propyl-1,2,3,4,4a,5,10,10a-octahydrobenzo[g]quinoline-6,7-diyl bis(dihydrogen phosphate)] |  | 4% @ 10 μM |  |  | Compound (8) | Observed metabolite, incubation in human plasma ([3]; listed as compound (6)): compound (8) was formed; Appearance of compound (I) in incubation ([3]; human plasma, in words): no appearance of compound (I) was observed |
| CCCN1CCC[C@@H]2Cc3c(ccc(O)c3OP(=O)(O)O)C[C@H]21 [Compound (8), (4aR,10aR)-7-hydroxy-1-propyl-1,2,3,4,4a,5,10,10a-octahydrobenzo[g]quinolin-6-yl dihydrogen phosphate] | Compound (1) |  |  |  | Compound (1) | 5-HT2B % effect @ 1 μM (human 5-HT2B receptor; 1 μM, percent of the control response to 1 μM 5-HT): 0% @ 1 μM |
| CCCN1CCC[C@@H]2Cc3c(ccc4c3OCO4)C[C@H]21 [(Ib), (6aR,10aR)-7-propyl-6,6a,7,8,9,10,10a,11-octahydro-[1,3]dioxolo[4′,5′:5,6]benzo[1,2-g]quinoline] |  |  | effective | early and high peak plasma concentrations of compound (I) |  | 5-HT2B receptor agonism, in words (human 5-HT2B receptor): agonist of the 5-HT2B receptor; Conversion to compound (I) [9]: demonstrated; Conversion to compound (I) [10]: demonstrated |
